Measured values: the supplement of paper PMC10307832

Compound: Cc1ccc(C(=O)Nc2ccc(CN3CCN(C)CC3)c(C(F)(F)F)c2)cc1C#Cc1cnc2cccnn12 [Ponatinib] + CCNC(=O)c1noc(-c2cc(C(C)C)c(O)cc2O)c1-c1ccc(CN2CCOCC2)cc1 [Luminespib] (partner 0.01 µM)
Test: relative viability (nuclei count vs DMSO), 5 days (fraction); higher = more cells survive
Conditions: first compound 0.2 µM
Summary of the method: (§1)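 The day after seeding in 1536-well plates, lung cancer cell lines were treated by pin tool with a single drug, or with a fixed anchor-drug dose together with five library-drug doses (not always all listed) in √10 steps. After 5 days, a combined fix-and-stain solution (final 0.05% Triton X-100, 1% formaldehyde, 1 ug/ml Hoechst) was added. Nuclei counted on 4× images gave relative viability as treated counts over vehicle counts, reported as the median of duplicate plates.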

Row | Cell Line | relative viability
1 | HARA | 0.682
2 | SW 900 | 0.204
3 | NCI-H441 | 0.315
4 | LCLC-97TM1 | 0.439
5 | NCI-H2009 | 0.918
6 | A-427 | 0.75
7 | NCI-H1792 | 0.389
8 | NCI-H1563 | 0.476

Compound: Cc1ccc(C(=O)Nc2ccc(CN3CCN(C)CC3)c(C(F)(F)F)c2)cc1C#Cc1cnc2cccnn12 [Ponatinib] + Cc1nc(Nc2ncc(C(=O)Nc3c(C)cccc3Cl)s2)cc(N2CCN(CCO)CC2)n1 [Dasatinib] (partner 0.075 µM)
Test: as above
Conditions: first compound 0.002 µM
Summary of the method: as §1

Row | Cell Line | relative viability
9 | NCI-H2342 | 0.285
10 | NCI-H1623 | 0.524
11 | NCI-H838 | 0.275
12 | NCI-H1650 | 0.298
13 | NCI-H1993 | 0.684
14 | NCI-H2347 | 0.302
15 | PC-14 | 0.244
16 | LCLC-103H | 0.386
17 | NCI-H596 | 0.505
18 | NCI-H2126 | 0.554
19 | EMC-BAC-2 | 0.335
20 | NCI-H2085 | 0.268
21 | HCC-366 | 0.563
22 | NCI-H1666 | 0.761
23 | NCI-H647 | 0.159
24 | NCI-H2087 | 0.83
25 | NCI-H1395 | 0.392
26 | H3255 | 0.326
27 | COR-L23 | 0.526

Row | Cell Line | relative viability
28 | COR-L 105 | 0.314
29 | LOU-NH91 | 0.541
30 | ChaGo-K-1 | 0.487
31 | NCI-H358 | 0.185
32 | NCI-H3122 | 0.773
33 | HOP-62 | 0.6
34 | NCI-H522 | 0.782
35 | LU99A | 0.498
36 | BEN | 0.255
37 | HARA | 0.281
38 | SW 900 | 0.682
39 | HCC-78 | 0.33
40 | NCI-H441 | 0.72
41 | LCLC-97TM1 | 0.983
42 | NCI-H2009 | 0.259
43 | A-427 | 0.696
44 | NCI-H1792 | 0.726
45 | NCI-H1563 | 0.473

Same assay, conditions: first compound 0.006325 µM

Row | Cell Line | relative viability
46 | NCI-H2342 | 0.309
47 | NCI-H1623 | 0.527
48 | NCI-H838 | 0.261
49 | NCI-H1650 | 0.346
50 | NCI-H1993 | 0.661
51 | NCI-H2347 | 0.301
52 | PC-14 | 0.24
53 | LCLC-103H | 0.573
54 | NCI-H596 | 0.61
55 | NCI-H2126 | 0.564
56 | EMC-BAC-2 | 0.319
57 | NCI-H2085 | 0.261
58 | HCC-366 | 0.621
59 | NCI-H1666 | 0.829
60 | NCI-H647 | 0.171
61 | LK-2 | 0.268
62 | NCI-H2087 | 0.743
63 | NCI-H1395 | 0.404
64 | H3255 | 0.317

Row | Cell Line | relative viability
65 | COR-L23 | 0.502
66 | COR-L 105 | 0.41
67 | LOU-NH91 | 0.581
68 | ChaGo-K-1 | 0.567
69 | NCI-H358 | 0.184
70 | NCI-H3122 | 0.85
71 | HOP-62 | 0.607
72 | NCI-H522 | 0.846
73 | LU99A | 0.664
74 | BEN | 0.279
75 | HARA | 0.215
76 | SW 900 | 0.494
77 | HCC-78 | 0.35
78 | NCI-H441 | 0.53
79 | LCLC-97TM1 | 0.94
80 | NCI-H2009 | 0.292
81 | A-427 | 0.784
82 | NCI-H1792 | 0.795
83 | NCI-H1563 | 0.506

Same assay, conditions: first compound 0.06325 µM

Row | Cell Line | relative viability
84 | NCI-H2342 | 0.296
85 | NCI-H1623 | 0.55
86 | NCI-H838 | 0.305
87 | NCI-H1650 | 0.327
88 | NCI-H1993 | 0.832
89 | NCI-H2347 | 0.404
90 | PC-14 | 0.292
91 | LCLC-103H | 0.532
92 | NCI-H596 | 0.479
93 | NCI-H2126 | 0.65
94 | EMC-BAC-2 | 0.323
95 | NCI-H2085 | 0.221
96 | HCC-366 | 0.644
97 | NCI-H1666 | 0.906
98 | NCI-H647 | 0.211
99 | LK-2 | 0.196
100 | NCI-H2087 | 0.798
101 | NCI-H1395 | 0.427
102 | H3255 | 0.387

Row | Cell Line | relative viability
103 | COR-L23 | 0.666
104 | COR-L 105 | 0.344
105 | LOU-NH91 | 0.548
106 | ChaGo-K-1 | 0.488
107 | NCI-H358 | 0.236
108 | NCI-H3122 | 0.838
109 | HOP-62 | 0.819
110 | NCI-H522 | 0.703
111 | LU99A | 0.498
112 | BEN | 0.257
113 | HARA | 0.233
114 | SW 900 | 0.453
115 | HCC-78 | 0.296
116 | NCI-H441 | 0.539
117 | LCLC-97TM1 | 0.906
118 | NCI-H2009 | 0.297
119 | A-427 | 0.721
120 | NCI-H1792 | 0.886
121 | NCI-H1563 | 0.447

Same assay, conditions: first compound 0.2 µM

Row | Cell Line | relative viability
122 | NCI-H2342 | 0.296
123 | NCI-H1623 | 0.539
124 | NCI-H838 | 0.258
125 | NCI-H1650 | 0.349
126 | NCI-H1993 | 0.603
127 | NCI-H2347 | 0.362
128 | PC-14 | 0.248
129 | LCLC-103H | 0.394
130 | NCI-H596 | 0.373
131 | NCI-H2126 | 0.531
132 | EMC-BAC-2 | 0.305
133 | NCI-H2085 | 0.237
134 | HCC-366 | 0.54
135 | NCI-H1666 | 0.853
136 | NCI-H647 | 0.117
137 | LK-2 | 0.158
138 | NCI-H2087 | 0.525
139 | NCI-H1395 | 0.393
140 | H3255 | 0.367

Row | Cell Line | relative viability
141 | COR-L23 | 0.433
142 | COR-L 105 | 0.341
143 | LOU-NH91 | 0.525
144 | ChaGo-K-1 | 0.509
145 | NCI-H358 | 0.187
146 | NCI-H3122 | 0.809
147 | HOP-62 | 0.6
148 | NCI-H522 | 0.816
149 | LU99A | 0.462
150 | BEN | 0.311
151 | HARA | 0.173
152 | SW 900 | 0.48
153 | HCC-78 | 0.382
154 | NCI-H441 | 0.406
155 | LCLC-97TM1 | 0.863
156 | NCI-H2009 | 0.295
157 | A-427 | 0.481
158 | NCI-H1792 | 0.542
159 | NCI-H1563 | 0.434
